The values below come from patent US11229712B2, “In vivo detection of a xenon-binding cage molecule” (Lakehead University, priority 2016, dated 2022).

Each structure is given as a SMILES string. “Also recorded” adds a separate entry of the source.

The nature of data set [1]: HyperCEST 129Xe MR imaging of syringes with CB6 blood solution and saturation map. Type of data set: physicochemical, bovine. The settings on record: 2.5 mM CB6 in blood, on-resonance pre-pulses at 124.3 ppm (FIG. 4). An excerpt:
We obtained MR images of two syringes within the same field of view: one filled with a CB6 blood solution, the other with only a blood solution and no CB6 molecules (FIG. 4). Signal from the plasma, gas phase, and RBC-bound xenon is present in the control image (FIG. 4A). We observed a gas phase chemical shift artifact, offset by 43 pixels of 67.1 mm. Additionally, we observed a stronger gas phase signal from the control solution (right syringe) than the CB6 syringe (left syringe). We attribute this phenomenon to the differences in the extent of blood foam formation between the two solutions. The control solution foamed more than the CB6 solution, which provided a reservoir of gaseous hyperpolarized xenon to exchange with the xenon dissolved in the plasma providing a stronger xenon-plasma signal. […] A saturation map was produced (FIG. 4C) by normalizing each image by Its own background noise and subtracting the off-resonance control image from the HyperCEST saturation image and normalizing pixel-by-pixel, the off-resonance image. […]
^129Xe gas was polarized to 30% using a Xemed polarizer (Xemed, Durham, N.H.). […] The signal-noise ratio (SNR) of each spectrum was calculated using MATLAB (MathWorks, Natick Mass.). Signal depletion values due to the HyperCEST effect were measured by subtracting the HyperCEST saturation spectrum SNR from the control spectrum SNR and dividing by the control SNR.

The nature of data set [2]: In vivo HyperCEST 129Xe MR spectra of abdomen and brain after IV CB6. Also noted: species or system Sprague-Dawley rat. The settings on record: 3 mL of 10 mM CB6 IV, pre-pulse +124.3 ppm. The procedure: A 10 mM solution of the CB6 cage molecule dissolved in 1×PBS (pH 7.2) was prepared. 3 mL of the CB6 solution was injected into the tail vein catheter of a Sprague-Dawley rat and allowed to bio-distribute for 30 minutes. An endotracheal tube was surgically placed in the anaesthetized rat, and the rat was ventilated with 100% oxygen using a custom made ventilator. The rat was placed into a whole body custom made rat RF coil. Five seconds prior to xenon MR image acquisition, the rat was ventilated with a gas mixture of 80% xenon/20% oxygen. We acquired free induction decay (FID) magnetic resonance spectra (MRS) (FIGS. 5 & 6, A & D) from both the abdomen and head of the rat. […] We attribute this to a variety of susceptibility and line broadening effects occurring in vivo. […]
(§1) A midline incision was made in the neck of the rat and the trachea localized. […] A Positive End Expiratory Pressure of 20 mBar was measured. […]
30 minutes following injection of CB6, the ventilator was set to continuously dispense an 80% xenon/20% oxygen mixture to the rat. […] The signal to noise ratio (SNR) of each spectrum was calculated using MATLAB. The HyperCEST depletion at each chemical shift offset was calculated and plotted using Microsoft Excel.

The conditions of data set [3]: from reference 14; cited from earlier work.
Data set [4] can be described thus: In vivo HyperCEST 129Xe MRI saturation maps showing location of CB6. Also noted: species or system Sprague-Dawley rat. The settings on record: rat.
Text: We then acquired ^1H turbo spin echo (TSE) MR images to correlate the xenon signal with its anatomical location. Immediately prior to ^129Xe image acquisition, the rat was ventilated with xenon as described above. The imaging sequence began with a saturation pre-pulse consisting of sixteen 20 ms 3-lobe sinc pulses with a 3 sec pulse interval applied at […] chemical shift frequencies. ^129Xe gradient echo (GE) images were acquired with both on-resonance and off-resonance saturation pre-pulses (FIGS. 6 & 7B & E). […] By applying the HyperCEST saturation pulses, we observed a reduction in signal in areas containing the CB6 molecules (FIGS. 6 & 7E).
We also created a HyperCEST saturation map in the brain of the rat (FIG. 8B).
All animal procedures were approved by the Lakehead University Animal Care Committee. Sprague-Dawley rats (n=6) (Charles River, Sherbrook QC) weighing between 300-400 g were anesthetized using 4 LPM of isoflurane until their corneal reflex became absent. […]
as §1
30 minutes following CB6 injection, the ventilator was set to dispense xenon to the rat. […] Images were collected and analyzed using MATLAB. […]

A short description of data set [5]: HyperCEST depletion of CB6 in whole bovine blood (129Xe NMR spectra, 3T). Type of data set: physicochemical. The procedure: […] of cucurbituril (CB6) was made by dissolving 50 mg of CB6 (Sigma-Aldrich, St. Louis, USA) in 10 mL of 1× phosphate buffered saline (PBS) at pH 7.2 at room temperature. The mixture was shaken gently. Ten mL of the CB6-PBS solution was mixed with 10 mL of fresh citrated bovine blood (Cederlane, Burlington Calif.) within a 30 mL syringe to create a 2.5 mM solution of CB6 in a blood solution. The control sample was prepared in an identical manner as the CB6 solution except CB6 was omitted. The control sample contained 10 mL of PBS and 10 mL of bovine blood.
Serial dilutions of CB6 in blood were made by adding an appropriate amount of blood to the 2.5 mM stock solution.
^129Xe gas was polarized to 30% using a Xemed polarizer (Xemed, Durham, N.H.). 7.5 mL of HP ^129Xe gas was introduced into the syringe over 5 s from the Tedlar bag in the pressure chamber which was pressurized at 3 psi above atmosphere. The solution and gas were mixed by agitating the syringe for approximately 12 s. Approximately 3 mL of ^129Xe dissolved in the blood/PBS solvent, the remaining undissolved ^129Xe was ejected from the syringe, yielding an effective ^129Xe concentration of 7.5 mM. The procedure was repeated for each spectral acquisition for the HyperCEST depletion spectrum. The 30 mL syringe containing the CB6-blood solution was placed inside a custom RF coil tuned to the Larmor frequency of 129Xe (35.33 MHz) at 3T. A Philips Achieva 3T clinical scanner was used to acquire all NMR spectra and MR images. A free induction decay (FID) was collected and the chemical shift of the ^129Xe/CB6 complex was noted. Ref B1 is a parameter of Philips MR scanners and is used to calculate the RF pulse length. The scanner uses the pulse length and flip angle to determine the amplitude of the RF pulse and field strength. For these experiments, the scanner set a B1 field strength of 1.18 μT. For the NMR spectra and images, a pulsed saturation pre-pulse train consisting of 16-6 ms 3-lobe sinc pulses with 3 ms pulse intervals was applied +124.3 ppm off resonance from the gas phase peak which corresponds to the chemical shift of the CB6-Xe complex. For initial HyperCEST depletion measurements, control spectra were collected with an off resonance saturation pre-pulse at 258 ppm. A HyperCEST depletion spectrum was collected by measuring HyperCEST depletion at various shift offsets from the CB6/Xe peak. A minimum of 3 spectra were collected at each chemical shift and the mean signal depletion was plotted as a function of the frequency of the chemical shift offset. The signal-noise ratio (SNR) of each spectrum was calculated using MATLAB (MathWorks, Natick Mass.). Signal depletion values due to the HyperCEST effect were measured by subtracting the HyperCEST saturation spectrum SNR from the control spectrum SNR and dividing by the control SNR.

For the compound `O=C1N2CN3C(=O)N4CN5C(=O)N6CN7C(=O)N8CN9C(=O)N%10CN%11C(=O)N%12CN1C1C2N2CN%13C(=O)N(CN%14C(=O)N(CN%15C(=O)N(CN%16C(=O)N(CN%17C(=O)N(CN1C2=O)C%12C%11%17)C%10C9%16)C8C7%15)C6C5%14)C4C3%13` (centres unmarked) [CB6, cucurbituril], the “Depletion of dissolved phase xenon signal in MR image and saturation map” value in data set [1] was “almost complete depletion; also recorded: strong CB6 HyperCEST signal depletion”. In addition, the “Reduction in signal intensity compared to the off-resonance control spectrum” value in data set [2] (rat abdomen, 30 minutes) stood at 86%. For the same compound, the “Reduction in signal intensity of the MR signal” value in data set [2] (rat brain) was found to be 38%. Also, the Xe-CB6 exchange in data set [3] is 1470 s⁻¹. In addition, in data set [4] (3 mL of 10 mM CB6 IV, imaging 30 minutes after injection), the “Location of CB6 in HyperCEST saturation map” value was “heart, lungs, aorta, kidneys, and bladder; also recorded: brain, heart, lungs, aorta, carotid arteries, and kidneys”. Moreover, in data set [4] (weak HyperCEST signal from the bladder), the “Excretion of CB6” value is reported as “renal clearance into the bladder; also recorded: excreted by the kidneys”. Moreover, the “HyperCEST depletion as a function of CB6 concentration” value in data set [5] (250 μM CB6 in whole bovine blood (FIG. 3)) stood at 14%; in data set [5] (2.5 mM CB6 in whole bovine blood (FIG. 3)), 80%. Also, in data set [5] (2.5 mM CB6 in blood and PBS, saturation pre-pulse train at +124.3 ppm (FIG. 1)), the “HyperCEST depletion in the dissolved phase xenon signal” value amounted to 84%. The “HyperCEST signal depletion, local minimum of depletion spectrum” value in data set [5] (CB6 in blood, pulsed at +124.3 ppm (FIG. 2)) stood at 74%. In addition, the “Lowest CB6 concentration at which HyperCEST depletion was measurable” value in data set [5] (serial dilutions of CB6 in blood) worked out at 10 µM.
